Non-standard residues stand in square brackets, D forms with d. Residues, ends and D or L forms follow the SMILES beside them. dGla = N[C@H](CC(C(=O)O)C(=O)O)C(=O)O; Cha = N[C@@H](CC1CCCCC1)C(=O)O
Key:
NS3 [1] = molecular target: T1, NS3 (Hepatitis C virus, UniProt A3EZJ3); test: Inhibition of HCV genotype-3a full length NS3 protease preincubated for 10 mins followed by Ac-DED(Edans)EEAbuj-[COO]ASK(Dabcyl)-NH2 addition in presence of co-factor 2K-NS4A by fluorescence assay; design: species or system Hepatitis C virus subtype 3a
NS3 [2] = molecular target: T1, NS3; test: Inhibition of HCV genotype-1a full length NS3 protease preincubated for 10 mins followed by Ac-DED(Edans)EEAbuj-[COO]ASK(Dabcyl)-NH2 addition in presence of co-factor 2K-NS4A by fluorescence assay; design: species or system Hepatitis C virus subtype 1a
[3] = Cytotoxicity against human HuH7 cell; type: cell-based, Huh-7; conditions: HuH7 cells
NS3 [4] = molecular target: NS3 (Hepatitis C virus, UniProt A3EZJ3, R155K); test: Inhibition of HCV genotype-1a full length NS3 protease R155K mutant preincubated for 10 mins followed by Ac-DED(Edans)EEAbuj-[COO]ASK(Dabcyl)-NH2 addition in presence of co-factor 2K-NS4A by fluorescence assay; design: species or system Hepatitis C virus subtype 1a
Hepatitis C virus = test: Antiviral activity against HCV genotype 1b infected in human HuH7 cells; type: functional, organism-based, Hepacivirus hominis; conditions: Huh-7
NS3 [5] = molecular target: T1, NS3; test: Inhibition of HCV genotype-1a NS3 protease; design: species or system Hepatitis C virus subtype 1a

NS3 (Hepatitis C virus, UniProt A3EZJ3, R155K), sequence (A3EZJ3 entry or part of it R155K): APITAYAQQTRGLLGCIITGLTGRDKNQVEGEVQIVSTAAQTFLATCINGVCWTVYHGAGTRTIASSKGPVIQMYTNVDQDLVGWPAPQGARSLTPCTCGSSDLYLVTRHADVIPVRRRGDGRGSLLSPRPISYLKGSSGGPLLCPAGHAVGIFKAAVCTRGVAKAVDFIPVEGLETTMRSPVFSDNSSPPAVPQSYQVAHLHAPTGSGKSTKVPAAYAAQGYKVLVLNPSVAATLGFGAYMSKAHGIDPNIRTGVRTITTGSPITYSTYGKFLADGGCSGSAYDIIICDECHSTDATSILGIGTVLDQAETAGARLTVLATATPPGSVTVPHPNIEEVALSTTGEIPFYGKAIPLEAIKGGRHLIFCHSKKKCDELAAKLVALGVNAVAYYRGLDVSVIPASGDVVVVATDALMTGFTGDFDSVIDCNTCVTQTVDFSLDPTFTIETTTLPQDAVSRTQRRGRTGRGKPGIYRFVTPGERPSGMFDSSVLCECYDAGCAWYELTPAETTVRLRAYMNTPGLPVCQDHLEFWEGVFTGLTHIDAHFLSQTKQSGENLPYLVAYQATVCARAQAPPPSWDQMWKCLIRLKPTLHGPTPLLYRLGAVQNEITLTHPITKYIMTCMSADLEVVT
T1 sequence (A3EZJ3 whole entry): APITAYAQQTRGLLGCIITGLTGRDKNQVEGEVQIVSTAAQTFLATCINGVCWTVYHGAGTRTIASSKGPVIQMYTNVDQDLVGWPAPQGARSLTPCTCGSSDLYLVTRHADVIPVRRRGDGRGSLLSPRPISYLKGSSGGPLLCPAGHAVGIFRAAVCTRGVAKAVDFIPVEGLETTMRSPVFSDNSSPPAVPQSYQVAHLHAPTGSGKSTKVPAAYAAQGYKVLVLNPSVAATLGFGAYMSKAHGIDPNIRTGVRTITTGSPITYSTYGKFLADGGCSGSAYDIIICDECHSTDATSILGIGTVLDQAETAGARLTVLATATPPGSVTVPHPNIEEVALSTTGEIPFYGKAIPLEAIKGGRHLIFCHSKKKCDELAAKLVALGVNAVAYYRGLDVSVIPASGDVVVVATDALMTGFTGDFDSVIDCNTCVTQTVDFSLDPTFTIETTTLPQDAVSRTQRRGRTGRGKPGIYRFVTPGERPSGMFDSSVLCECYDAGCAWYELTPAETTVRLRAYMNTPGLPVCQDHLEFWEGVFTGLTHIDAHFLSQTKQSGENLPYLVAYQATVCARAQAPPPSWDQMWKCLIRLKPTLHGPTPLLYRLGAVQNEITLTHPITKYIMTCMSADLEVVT

Row | SMILES | Ki (NS3 [1]) [nM] | Ki (NS3 [2]) [nM] | also measured
1 | CC(C)(C)NC(=O)Nc1nc(Cl)c(CCC2CCCCC2)n(CC(=O)NC2(C(=O)NS(=O)(=O)c3ccc(C(F)(F)F)cc3)CC(OCc3ccccc3)C2)c1=O (stereo not given) | 68 |  | 
2 | O=C(Cn1c(Cc2ccccc2)c(Cl)nc(NNC(=O)c2ccccc2)c1=O)Nc1ccccc1C(=O)NS(=O)(=O)c1ccc(C(F)(F)F)cc1 |  | 1650 | 
3 | CC1(C)CC(=O)N(C[C@@H](NC(=O)Nc2nc(Cl)c(CCC3CCCCC3)n(CC(=O)Nc3cc(F)ccc3C(=O)NS(=O)(=O)c3ccc(C(F)(F)F)cc3)c2=O)C(C)(C)C)C(=O)C1 | 5.4 | 30 | CC50 [3]: 26000 nM; Ki (NS3 [4]): 2 nM; EC50 (Hepatitis C virus): 7100 nM
4 | CC(C)(C)NC(=O)Nc1nc(Cl)c(CCC2CCCCC2)n(CC(=O)Nc2cc(-c3cncnc3)ccc2C(=O)NS(=O)(=O)c2ccc(C(F)(F)F)cc2)c1=O | 87 |  | 
5 | CC(C)(C)N1CCN(c2nc(Cl)c(Cc3ccccc3)n(CC(=O)Nc3ccccc3C(=O)NS(=O)(=O)c3ccc(C(F)(F)F)cc3)c2=O)C1=O |  | 380 | 
6 | CC[C@H](C)[C@H](NC(=O)[C@H](CC(C)C)NC(=O)[C@@H](CC(C(=O)O)C(=O)O)NC(=O)[C@H](CC(=O)O)NC(C)=O)C(=O)N[C@@H](CC1CCCCC1)C(=O)N[C@@H](CS)C(=O)O (Ac-D[dGla]LI[Cha]C-OH) |  | 9 | 
7 | CC(C)(C)NC(=O)Nc1nc(Cl)c(Cc2cccc3ccccc23)n(CC(=O)Nc2ccccc2S(=O)(=O)NC(=O)c2ccc(C(F)(F)F)cc2)c1=O | 170 |  | 
8 | CC(C)(C)[C@@H](CNS(=O)(=O)c1cccnc1)NC(=O)Nc1nc(Cl)c(Cc2ccccc2)n(CC(=O)Nc2cc(F)ccc2C(=O)NS(=O)(=O)c2ccc(C(F)(F)F)cc2)c1=O |  | 190 | Ki (NS3 [4]): 40 nM
9 | CC(C)(C)NC(=O)Nc1nc(Cl)c(CCC2CCCCC2)n(CC(=O)Nc2ccccc2C(=O)O)c1=O | 70 |  | 
10 | COc1ccc2c(O[C@@H]3C[C@H]4C(=O)N[C@]5(C(=O)O)C[C@H]5/C=C\CCCCC[C@H](NC(=O)OC5CCCC5)C(=O)N4C3)cc(-c3csc(NC(C)C)n3)nc2c1 [CILUPREVIR] | 20 |  | CC50 [3]: > 100 nM; Ki (NS3 [5]): 0.089 nM
11 | CC1(C)CC(=O)N(C[C@@H](NC(=O)Nc2nc(Cl)c(Cc3ccccc3)n(CC(=O)Nc3cc(F)ccc3C(=O)NS(=O)(=O)c3ccc(C(F)(F)F)cc3)c2=O)C(C)(C)C)C(=O)C1 | 135 | 160 | Ki (NS3 [4]): 30 nM
